# Target: T1, mTAAR7f-SS (Mus musculus, UniProt Q5QD08, C133S/Y132S)
# T1 construct: Full Taar coding regions were cloned into pcDNA3.1-(Invitrogen); Rho tag (first 20 aa of bovine rhodopsin + linker); expressed in transfected cells; host or cells: HEK293
# T1 sequence (Q5QD08 1-358 Y132S/C133S): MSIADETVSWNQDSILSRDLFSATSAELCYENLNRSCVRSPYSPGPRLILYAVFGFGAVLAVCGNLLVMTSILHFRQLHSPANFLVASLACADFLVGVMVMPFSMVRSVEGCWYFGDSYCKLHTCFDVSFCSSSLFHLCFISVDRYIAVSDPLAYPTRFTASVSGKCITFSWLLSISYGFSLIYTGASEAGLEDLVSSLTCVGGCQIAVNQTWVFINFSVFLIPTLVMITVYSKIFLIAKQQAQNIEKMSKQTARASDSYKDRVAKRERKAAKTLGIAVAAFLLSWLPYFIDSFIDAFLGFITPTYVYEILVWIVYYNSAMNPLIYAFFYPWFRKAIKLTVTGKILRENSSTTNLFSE
# Assay: Reporter gene assay on mutant receptor mTAAR7f-SS
# Assay type: cell-based
# Conditions: mutant vs mTAAR7f
# Experimental: To test this, we created mutant receptors in which sequences of mTAAR7e were swapped into mTAAR7f and vice versa. Position 132^3.37 is a tyrosine in mTAAR7f and the other three receptors that detect 10, but a serine in mTAAR7e and a cysteine in rTAAR7h, the two receptors that detect 6. Furthermore, position 133^3.38 is a cysteine in mTAAR7f but a serine in mTAAR7e and rTAAR7h. We altered positions 132^3.37 and 133^3.38 by mutation of mTAAR7e (‘mTAAR7e-YC’) and mTAAR7f (‘mTAAR7f-SS’) and examined odor responses of these mutants using the cellular reporter gene assay (FIG. 9).
# TAAR functional assays. Full Taar coding regions were cloned into pcDNA3.1-(Invitrogen) with or without a 5′ DNA extension of 69 bp encoding the first 20 amino acids of bovine rhodopsin followed by a cloning linker ([…]). Point mutations were introduced in mTAAR7e and mTAAR7f by overlap extension PCR. Functional assays were performed as described (40, 42). Fluorescence was measured on an EnVision plate reader (Perkin Elmer) and SEAP activity graphed as relative fluorescence of a phosphatase substrate.
structure (smiles),measurement,value
"CN(C)C1CCCCC1 [ligand 10, N,N-dimethylcyclohexylamine]",reduced affinity of mTAAR7f-SS,~100 fold

# Source: patent publication US20140221499A1, “NOVEL RODENT CONTROL AGENTS AND USES THEREOF” (priority 2011, published 2014)
